One experiment relates to P. aeruginosa CDC-0095. Description: microbe, parasite or virus in culture. It is filed as cell-based. Particulars: Pseudomonas aeruginosa, CDC0095, read-out: Minimum inhibitory concentration, P. aeruginosa CDC-0095.
The test system of another experiment is P. aeruginosa CDC-0054. The experiment in a line: microbe, parasite or virus in culture. The format is cell-based. Particulars: Pseudomonas aeruginosa, CDC0054, read-out: Minimum inhibitory concentration, P. aeruginosa CDC-0054.
The subject of another experiment is A. baumannii CDC-0033. The experiment in a line: microbe, parasite or virus in culture. It is filed as cell-based. To be noted: Acinetobacter baumannii, CDC0033, read-out: MIC, A. baumannii CDC-0033.
For the next experiment, the system named is A. baumannii CDC-0036. The experiment in a line: microbe, parasite or virus in culture. It is filed as cell-based. Particulars: Acinetobacter baumannii, CDC0036, read-out: MIC, A. baumannii CDC-0036.
Another experiment has as its system A. baumannii ATCC 17978. Description: microbe, parasite or virus in culture. To be noted: Acinetobacter baumannii, ATCC17978, read-out: MIC, A. baumannii ATCC 17978. It is filed as cell-based.
The test system of experiment [1] is B. humptydooensis ATCC BAA-2767. Description: microbe, parasite or virus in culture. It is filed as cell-based. Particulars: Burkholderia humptydooensis, ATCCBAA2767, read-out: Minimum inhibitory concentration (MIC), B. humptydooensis ATCC BAA-2767.
In another experiment the test system is A. baumannii CDC-0045. Description: microbe, parasite or virus in culture. Particulars: Acinetobacter baumannii, CDC0045, read-out: MIC, A. baumannii CDC-0045. The format is cell-based.
The test system of the next experiment is A. baumannii ATCC 19606. The experiment in a line: microbe, parasite or virus in culture. The format is cell-based. Particulars: Acinetobacter baumannii, ATCC19606, read-out: MIC, A. baumannii ATCC 19606.
The test system of a further experiment is P. aeruginosa CDC-0110. The experiment in a line: microbe, parasite or virus in culture. The format is cell-based. To be noted: Pseudomonas aeruginosa, CDC0110, read-out: Minimum inhibitory concentration, P. aeruginosa CDC-0110.
A further experiment deals with P. aeruginosa CDC-0090. The experiment in a line: microbe, parasite or virus in culture. To be noted: Pseudomonas aeruginosa, CDC0090, read-out: Minimum inhibitory concentration, P. aeruginosa CDC-0090. It is filed as cell-based.
Experiment [2] relates to B. thailandensis ATCC 700388. The experiment in a line: microbe, parasite or virus in culture. It is filed as cell-based. To be noted: Burkholderia thailandensis, ATCC700388, read-out: Minimum inhibitory concentration (MIC), B. thailandensis ATCC 700388.
The subject of another experiment is A. baumannii CDC-0083. Description: microbe, parasite or virus in culture. The format is cell-based. To be noted: Acinetobacter baumannii, CDC0083, read-out: MIC, A. baumannii CDC-0083.
The subject of another experiment is A. baumannii 1258916. The experiment in a line: microbe, parasite or virus in culture. It is filed as cell-based, Acinetobacter baumannii. To be noted: Acinetobacter baumannii, 1258916, read-out: MIC, A. baumannii 1258916.
Experiment [3] concerns P. aeruginosa (ΔmexAB-oprM). The experiment in a line: Broth microdilution MIC in iron-depleted CAMHB (IDM). The format is cell-based. To be noted: Pseudomonas aeruginosa, read-out: Minimum inhibitory concentration, P. aeruginosa ΔmexAB-oprM. In general terms: Broth dilution looks for growth in wells or tubes with falling amounts of substance.
In experiment [4] the target is T1, PBP3 from Acinetobacter baumannii (ATCC 19606) (Acinetobacter baumannii, UniProt A0ABX6CK25).
T1 sequence (A0ABX6CK25 64-610): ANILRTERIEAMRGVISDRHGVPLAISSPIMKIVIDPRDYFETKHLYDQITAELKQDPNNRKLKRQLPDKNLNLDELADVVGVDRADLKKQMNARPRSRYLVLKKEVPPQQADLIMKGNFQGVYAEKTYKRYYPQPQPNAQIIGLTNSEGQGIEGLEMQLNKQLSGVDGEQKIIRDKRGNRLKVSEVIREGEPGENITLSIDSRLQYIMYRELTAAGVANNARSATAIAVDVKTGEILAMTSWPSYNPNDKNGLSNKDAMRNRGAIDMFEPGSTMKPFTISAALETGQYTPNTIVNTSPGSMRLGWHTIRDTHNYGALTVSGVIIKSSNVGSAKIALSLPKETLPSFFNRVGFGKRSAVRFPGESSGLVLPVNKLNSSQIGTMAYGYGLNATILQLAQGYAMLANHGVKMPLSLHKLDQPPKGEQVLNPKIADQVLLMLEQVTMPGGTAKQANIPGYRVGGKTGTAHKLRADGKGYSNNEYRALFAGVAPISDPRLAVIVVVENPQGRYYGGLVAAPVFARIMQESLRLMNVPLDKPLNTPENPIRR
The experiment in a line: Bocillin-FL fluorescence polarization competition binding, A. baumannii PBP3. To be noted: fluorescence polarization competition binding assay using Bocillin-FL; read-out: A. baumannii PBP3 Potency. The source says: (§1) To determine the ability of boronic acid-based test PBP inhibitors to bind Penicillin Binding Proteins (PBPs), Bocillin-FL (fluorescently-labeled penicillin V; ThermoFisher Scientific) was used in a fluorescence polarization (FP) competition binding assay to assess inhibitor binding to PBP3 from Escherichia coli (K-12), PBP3 from Pseudomonas aeruginosa (PAO1), PBP1a and PBP3 from Acinetobacter baumannii (ATCC 19606), and PBP2 from Neisseria gonorrhoeae (FA19). PBPs were cloned and purified as described previously (E. coli PBP3, King, D. T, et al., ACS Infectious Diseases 2015, 1, 175-184; P. aeruginosa PBP3, Han et. al., PNAS 2010, 107 (51), 22002-22007; A. baumannii PBPs, Penwell et. al., Antimicrob. Agents Chemother. 2015, 59 (3), 1680-1689; N. gonorrhoeae PBP2, Singh et. al., J. Biol. Chem. 2019, 294 (38), 14020-14032). To establish assay conditions for competition binding, enzyme titration/saturation binding experiments were initially performed. Bocillin-FL was prepared at 0.2 μM in a buffer comprised of 50 mM Hepes (pH 8.0), 300 mM NaCl and 10% (v/v) glycerol for reactions with E. coli, P. aeruginosa and N. gonorrhoeae PBPs, and 25 mM Tris (pH 8.0), 200 mM NaCl, 10% (v/v) glycerol and 0.005% (v/v) Tween 20 for reactions with A. baumannii PBPs. Saturation binding was performed by mixing 40 μl of PBP solutions ranging in concentrations from 0-24 μM with 40 μl of the 0.2 μM Bocillin-FL solution, in individual wells of a black 384-well microplate. FP was measured immediately upon mixing (Excitation, 490 nm; Emission, 520 nm; g-factor, 0.96), using a Cytation3 (BioTek) microplate reader and measured continuously for up to 120 minutes. The FP response stabilized after 15 minutes for P. aeruginosa and A. baumannii PBP3, 30 minutes for E. coli PBP3 and A. baumannii PBP1a, and less than 1 minute for N. gonorrhoeae PBP2. […] The competition binding assay (80 μl final volume) was validated using beta-lactams and PBPs at final concentrations of: 1.5 μM for E. coli PBP3; 0.75 μM for P. aeruginosa PBP3; 1 μM for A. baumannii PBP1a; 0.2 μM for A. baumannii PBP3; and 0.25 μM for N. gonorrhoeae PBP2. Bocillin-FL was at 0.1 μM (0.05 μM with A. baumannii PBP1a) and beta-lactam concentrations ranged from 0-1,000 μM. E. coli PBP3 was incubated with increasing concentrations of ampicillin in a black 384-well microplate (Corning) for 30 minutes. P. aeruginosa PBP3 was incubated for 15 minutes with aztreonam, whereas A. baumannii PBP1a and PBP3 were incubated for 15 minutes with meropenem, and then Bocillin-FL was added followed immediately by the FP measurement for up to 60 minutes. […] The beta-lactam potency was reported as the concentration of beta-lactam required to reduce the amount of PBP bound-Bocillin-FL by 50% (EC50). […] The EC50 of aztreonam was determined to be <0.5 μM for P. aeruginosa PBP3. […] Binding assays for boronic acid PBP inhibitors were performed in an identical fashion for the respective PBPs.
A general note: Fluorescence polarisation rises when a labelled molecule tumbles more slowly, as on binding a larger partner.

In a further experiment the test system is P. aeruginosa ATCC 27853. Description: microbe, parasite or virus in culture. The format is cell-based. To be noted: Pseudomonas aeruginosa, ATCC27853, read-out: Minimum inhibitory concentration, P. aeruginosa ATCC 27853.
In another experiment the test system is P. aeruginosa ATCC 35151. Description: microbe, parasite or virus in culture. It is filed as cell-based. Particulars: Pseudomonas aeruginosa, ATCC35151, read-out: Minimum inhibitory concentration, P. aeruginosa ATCC 35151.
Experiment [5] concerns the target T2, PBP1a from Acinetobacter baumannii (ATCC 19606) (Acinetobacter baumannii, UniProt A0ABX6CK30).
T2 sequence (A0ABX6CK30 1-851): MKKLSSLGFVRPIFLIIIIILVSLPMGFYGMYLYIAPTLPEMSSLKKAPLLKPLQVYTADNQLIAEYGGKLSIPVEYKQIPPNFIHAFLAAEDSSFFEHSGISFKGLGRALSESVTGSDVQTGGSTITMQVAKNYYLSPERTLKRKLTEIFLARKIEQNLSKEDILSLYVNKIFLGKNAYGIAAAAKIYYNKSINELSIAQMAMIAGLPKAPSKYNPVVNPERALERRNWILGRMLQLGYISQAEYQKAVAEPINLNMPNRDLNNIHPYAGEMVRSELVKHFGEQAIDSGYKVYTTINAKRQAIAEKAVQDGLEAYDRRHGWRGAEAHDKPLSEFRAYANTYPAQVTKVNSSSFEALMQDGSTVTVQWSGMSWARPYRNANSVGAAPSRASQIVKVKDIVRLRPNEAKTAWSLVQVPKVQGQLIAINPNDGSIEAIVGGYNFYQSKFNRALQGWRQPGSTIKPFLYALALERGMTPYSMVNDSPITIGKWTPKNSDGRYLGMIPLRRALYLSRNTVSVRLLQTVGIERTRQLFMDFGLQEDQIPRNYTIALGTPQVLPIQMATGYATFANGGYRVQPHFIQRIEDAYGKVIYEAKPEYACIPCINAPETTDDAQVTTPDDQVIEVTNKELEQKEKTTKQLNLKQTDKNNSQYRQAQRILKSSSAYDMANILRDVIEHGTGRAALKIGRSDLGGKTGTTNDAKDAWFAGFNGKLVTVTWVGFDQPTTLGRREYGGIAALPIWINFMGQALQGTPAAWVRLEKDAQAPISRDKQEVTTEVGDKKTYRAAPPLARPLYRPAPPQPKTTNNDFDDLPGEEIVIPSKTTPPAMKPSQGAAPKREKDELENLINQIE
The experiment in a line: Bocillin-FL fluorescence polarization competition binding, A. baumannii PBP1a.
Excerpt: as §1

A word on the pEC50: it is −log10 of the EC50, conventionally taken in molar units. The low end stands for a large EC50, the high end for a small EC50.

pEC50, pIC50: −log10 of the molar value. Converted amounts (≈) assume the structure as drawn.

In the case of `O=C(O)c1c(F)ccc2c1OB(O)[C@@H](NC(=O)[C@@H](NC(=O)N1CCN(Cc3ccc(O)c(O)c3Cl)C(=O)C1=O)c1ccc(P(=O)(O)O)cc1)C2` (single isomer, unassigned) [Example 161], the MIC is below 1 µg/mL in the experiment on P. aeruginosa CDC-0095; below 1 µg/mL in the experiment on P. aeruginosa CDC-0054; 8 to 16 µg/mL (≈ 10.9 to 21.8 µM) in the experiment with A. baumannii CDC-0033; above 128 µg/mL with A. baumannii CDC-0036; below 1 µg/mL in the experiment with A. baumannii ATCC 17978; below 1 µg/mL in experiment [1]. Also, the MIC in the experiment with A. baumannii CDC-0045 was above 128 µg/mL; in the experiment with A. baumannii ATCC 19606, below 1 µg/mL; with P. aeruginosa CDC-0110, below 1 µg/mL; in the experiment with P. aeruginosa CDC-0090 it was above 128 µg/mL; in experiment [2], below 1 µg/mL; in the experiment with A. baumannii CDC-0083 it was 8 to 16 µg/mL (≈ 10.9 to 21.8 µM). Moreover, the MIC was above 128 µg/mL in the experiment with A. baumannii 1258916, 2 to 4 µg/mL (≈ 2.72 to 5.44 µM) in [3], 2 to 4 µg/mL (≈ 2.72 to 5.44 µM) in the experiment with P. aeruginosa ATCC 27853 and below 1 µg/mL in the experiment on P. aeruginosa ATCC 35151. Also, the pIC50 in [4] was above 5.00.
For the molecule `C[C@@H](O)[C@H]1C(=O)N2C(C(=O)O)=C(S[C@@H]3CN[C@H](C(=O)N(C)C)C3)[C@H](C)[C@H]12` [meropenem, reference compound], in experiment [5], the pEC50 was above 6.30.

The record behind these values is patent publication US20240270762A1, “PENICILLIN-BINDING PROTEIN INHIBITORS” (priority 2021, published 2024).
